ChEMBL document CHEMBL3232726, “Discovery of 2-oxo-1,2-dihydrobenzo[cd]indole-6-sulfonamide derivatives as new RORγ inhibitors using virtual screening, synthesis and biological evaluation” (Eur J Med Chem, 2014)

Legend:
[1] = biological target: T1, Nuclear receptor ROR-gamma (Homo sapiens, UniProt P51449); experiment: Antagonist activity at Gal4-fused RORgamma (unknown origin) expressed in 293T cells after 24 hrs by luciferase reporter gene assay; format: cell-based
T1 sequence (P51449 whole entry): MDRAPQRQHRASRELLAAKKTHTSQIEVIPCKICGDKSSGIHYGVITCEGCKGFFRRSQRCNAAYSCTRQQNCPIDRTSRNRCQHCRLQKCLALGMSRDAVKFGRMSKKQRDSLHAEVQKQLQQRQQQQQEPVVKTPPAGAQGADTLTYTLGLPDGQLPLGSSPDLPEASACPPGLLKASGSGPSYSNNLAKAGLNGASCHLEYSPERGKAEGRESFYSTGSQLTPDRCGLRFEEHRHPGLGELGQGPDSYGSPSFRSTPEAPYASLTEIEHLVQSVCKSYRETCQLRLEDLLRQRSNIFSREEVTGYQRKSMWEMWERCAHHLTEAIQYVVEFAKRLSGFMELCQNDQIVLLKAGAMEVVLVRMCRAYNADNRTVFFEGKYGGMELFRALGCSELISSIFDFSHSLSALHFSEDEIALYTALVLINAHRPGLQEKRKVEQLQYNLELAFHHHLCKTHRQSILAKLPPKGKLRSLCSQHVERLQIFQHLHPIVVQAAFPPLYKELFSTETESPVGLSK

[2] = biological target: T1, Nuclear receptor ROR-gamma; experiment: Antagonist activity at full-length RORgamma (unknown origin) expressed in 293T cells after 24 hrs by luciferase reporter gene assay; format: cell-based
[3] = biological target: T1, Nuclear receptor ROR-gamma; experiment: Antagonist activity at human His6-tagged RORgamma ligand binding domain (262 to 507 aa) assessed as inhibition of SRC1-4 co-activator peptide recruitment by luminescence-based AlphaScreen assay

SMILES	IC50 [1]	IC50 [2]	IC50 [3]
CCN1C(=O)c2cccc3c(S(=O)(=O)NCC4CCN(C(C)=O)CC4)ccc1c23	6.03 µM	0.59 µM	
CCN1C(=O)c2cccc3c(S(=O)(=O)NCc4ccc(OC)cc4)ccc1c23			174 µM
NC(=O)c1ccc(NC(=O)c2cccc(COc3ccc(Cl)cc3)c2)cc1			168 µM

Further compounds by falling IC50 [3], results first:

IC50 [1]	IC50 [2]	IC50 [3]	SMILES
		156 µM	CCN1C(=O)c2cccc3c(S(=O)(=O)Nc4ccccc4C(=O)c4ccccc4)ccc1c23
		142 µM	C=CCn1c(CCCN2C(=O)c3cccc4cccc(c34)C2=O)nnc1SCC(=O)Nc1ccc(S(N)(=O)=O)cc1
		56.6 µM	C=CCn1c(COc2ccc(Cl)cc2)nnc1SCC(=O)N/N=C/c1cccc(O)c1
0.09 µM	0.08 µM	6.47 µM	CCN1C(=O)c2cccc3c(S(=O)(=O)N(C(=O)c4ccncc4)c4ccc(OC)cc4)ccc1c23
